Patent publication US7365096B2, “Methods for selectively inhibiting Janus tyrosine kinase 3 (Jak3)” (Board of Regents, The University of Texas System, priority 2002, dated 2008)
“Also recorded” adds a separate entry of the source.

Experiments:
[1] = Kidney function and lipid metabolism in rats on low-salt diet (FIGS. 11A-F); type: in vivo, rat; conditions: 160 mg/kg oral gavage, 14 day therapy
[2] = biological target: T1, Jak3 (Homo sapiens, UniProt P52333); test: IL-2 activated Jak3 tyrosine phosphorylation in YT cells (Western blot); type: cell-based; parameters: endogenous in cells; host or cells: human YT cells; conditions: 1-100 μM, 2 hours, 100 nM IL-2
T1 sequence (P52333 1-1124): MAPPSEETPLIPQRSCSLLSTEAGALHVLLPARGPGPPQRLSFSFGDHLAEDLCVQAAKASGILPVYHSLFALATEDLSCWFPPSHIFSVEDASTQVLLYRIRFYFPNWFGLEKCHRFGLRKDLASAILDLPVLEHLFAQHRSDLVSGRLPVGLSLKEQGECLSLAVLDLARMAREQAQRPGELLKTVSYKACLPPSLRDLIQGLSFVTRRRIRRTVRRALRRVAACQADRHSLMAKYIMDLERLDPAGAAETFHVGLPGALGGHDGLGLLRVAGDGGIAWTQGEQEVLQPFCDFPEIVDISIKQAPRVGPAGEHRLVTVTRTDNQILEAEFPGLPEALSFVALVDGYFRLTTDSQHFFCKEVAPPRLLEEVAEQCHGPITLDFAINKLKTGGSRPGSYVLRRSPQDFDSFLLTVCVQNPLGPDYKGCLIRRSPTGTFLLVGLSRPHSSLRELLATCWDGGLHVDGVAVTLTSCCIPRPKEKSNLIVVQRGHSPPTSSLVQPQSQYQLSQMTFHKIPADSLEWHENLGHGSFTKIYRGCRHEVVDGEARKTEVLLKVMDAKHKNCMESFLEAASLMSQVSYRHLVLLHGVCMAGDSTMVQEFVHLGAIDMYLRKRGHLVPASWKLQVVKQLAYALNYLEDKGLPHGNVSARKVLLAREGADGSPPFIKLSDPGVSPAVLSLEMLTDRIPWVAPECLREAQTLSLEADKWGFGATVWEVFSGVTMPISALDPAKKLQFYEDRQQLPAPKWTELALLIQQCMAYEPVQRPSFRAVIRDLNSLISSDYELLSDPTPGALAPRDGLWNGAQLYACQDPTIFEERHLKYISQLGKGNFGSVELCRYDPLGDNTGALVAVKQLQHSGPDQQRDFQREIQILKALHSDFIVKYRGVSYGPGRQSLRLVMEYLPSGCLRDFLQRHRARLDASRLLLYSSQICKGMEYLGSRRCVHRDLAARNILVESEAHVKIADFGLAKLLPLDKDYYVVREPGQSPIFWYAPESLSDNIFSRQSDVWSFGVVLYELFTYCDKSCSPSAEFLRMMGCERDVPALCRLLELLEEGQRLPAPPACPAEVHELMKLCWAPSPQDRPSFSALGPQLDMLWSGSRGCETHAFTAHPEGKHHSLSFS
Experimental: Solubilization of membrane proteins, immunoprecipitation, and Western blot analysis. Frozen cell pellets were thawed on ice and solubilized in 1% TX-100 lysis buffer (10^8 cells/ml) and clarified by centrifugation, as previously described.^16 For human T-cells, supernates were incubated rotating end over end for 2 hours at 4° C. with either 5 μl/ml polyclonal rabbit antisera raised against peptides derived from the unique COOH-termini of Jak3 (amino acid [a.a.] 1104-1124), carboxyl termini of human Stat5a (a.a. 775-794) or Stat5b (a.a. 777-787).^26 Ab and immunoprecipitated proteins were captured by incubation for 30 minutes with Protein A-Sepharose beads (Pharmacia, Piscataway, N.J.), sedimented for purification, and eluted by boiling in 2×SDS-sample buffer (20% Glycerol, 10% 2-Mercaptoethanol, 4.6% SDS, 0.004% Bromophenol blue in 0.125 M Tris pH 6.8) for 4 minutes. For phosphoMapk assays, approximately 25 μg of total cell lysate was dissociated in SDS-sample buffer and separated on 10% (all others on 7.5%) SDS-PAGE under reducing conditions. […]

CN(C)CC1CCCCCCCCCC(CN(C)C)C1=O (mixture of isomers) [649641P (NC1153)]
nephrotoxicity and lipid metabolism (serum creatinine, clearance, cholesterol, triglycerides, LDL, HDL) [1]: is not nephrotoxic and does not affect lipid metabolism
tyrosine phosphorylation of Jak3 [2]: inhibited in a dose-dependent fashion; also recorded: inhibited tyrosine phosphorylation
